For assay [1], the system named is blackgrass. The assay is described as follows: Test A preemergence. The class given is in vivo, Alopecurus myosuroides. As to conditions: for pest or weed control at 125 g/ha / pest or weed control at 500 g/ha: Alopecurus myosuroides, pre-emergence, 240 h, read-out: Plant response rating, Blackgrass; for pest or weed control at 500 g/ha: 500 g ai/ha. The procedure, abridged:
(§1)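 Seeds in loam–sand blend received a directed preemergence soil spray of compound in non-phytotoxic solvent with surfactant; postemergence plants (2–10 cm, one- to two-leaf stage) were sprayed with the same formulation. After 10 days in greenhouse, injury was rated visually versus untreated controls, 0 (no effect) to 100 (complete control).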

Assay [2] concerns foxtail, giant. The assay is described as follows: Test A preemergence. The format is in vivo, Setaria faberi. As to conditions: for pest or weed control at 125 g/ha / pest or weed control at 500 g/ha: Setaria faberi, pre-emergence, 240 h, read-out: Plant response rating, Foxtail, Giant; for pest or weed control at 500 g/ha: 500 g ai/ha. The procedure, abridged: as §1
Assay [3] deals with goosegrass. The assay is described as follows: Test A preemergence. The format is in vivo, Eleusine indica. To be noted: Eleusine indica, pre-emergence, 240 h, read-out: Plant response rating, Goosegrass. The procedure, abridged:
as §1

The subject of a further assay is soybean. The assay is described as follows: Test A preemergence. To be noted: for plant injury at 125 g/ha / plant injury at 500 g/ha: Glycine max, pre-emergence, 240 h, read-out: Plant response rating, Soybean. The class given is in vivo, Glycine max. An outline of the steps:
as §1

In assay [4] the test system is blackgrass. Briefly: Test A postemergence. The format is in vivo, Alopecurus myosuroides. As to conditions: for pest or weed control at 125 g/ha / pest or weed control at 500 g/ha: Alopecurus myosuroides, post-emergence, 240 h; for pest or weed control at 125 g/ha: read-out: Blackgrass plant response rating; for pest or weed control at 500 g/ha: read-out: Plant response rating, Blackgrass. The procedure, abridged:
as §1

The subject of assay [5] is foxtail, giant. The assay is described as follows: Test A postemergence. The format is in vivo, Setaria faberi. As to conditions: postemergence, 10 days; for pest or weed control at 125 g/ha / pest or weed control at 500 g/ha: Setaria faberi, post-emergence, 240 h, 0 to 100 scale (0 no effect, 100 complete control); for pest or weed control at 125 g/ha: read-out: Foxtail, Giant plant response rating; for pest or weed control at 500 g/ha: 500 g ai/ha, visual injury, read-out: Plant response rating, Foxtail, Giant. The procedure, abridged:
as §1

Assay [6] has as its system goosegrass. Briefly: Test A postemergence. The format is in vivo, Eleusine indica. To be noted: Eleusine indica, post-emergence, 240 h, postemergence, 10 days, 0 to 100 scale (0 no effect, 100 complete control). An outline of the steps: as §1
A further assay deals with oat, wild. Briefly: Test A postemergence. The format is in vivo, Avena fatua. As to conditions: postemergence, 10 days; for pest or weed control at 125 g/ha / pest or weed control at 500 g/ha: Avena fatua, post-emergence, 240 h; for pest or weed control at 125 g/ha: read-out: Oat, Wild plant response rating; for pest or weed control at 500 g/ha: read-out: Plant response rating, Oat, Wild. An outline of the steps: as §1

The next assay relates to pigweed, palmer. Briefly: Test A postemergence. The format is in vivo, Amaranthus palmeri. As to conditions: postemergence, 10 days; for pest or weed control at 125 g/ha / pest or weed control at 500 g/ha: Amaranthus palmeri, post-emergence, 240 h, 0 to 100 scale (0 no effect, 100 complete control); for pest or weed control at 125 g/ha: read-out: Pigweed, Palmer plant response rating; for pest or weed control at 500 g/ha: 500 g ai/ha, visual injury, read-out: Plant response rating, Pigweed, Palmer. The procedure, abridged:
as §1

For a further assay, the system named is ragweed. Briefly: Test A postemergence. The class given is in vivo, Ambrosia artemisiifolia. To be noted: postemergence, 10 days; for pest or weed control at 125 g/ha / pest or weed control at 500 g/ha: Ambrosia artemisiifolia, post-emergence, 240 h; for pest or weed control at 125 g/ha: read-out: Ragweed plant response rating; for pest or weed control at 500 g/ha: read-out: Plant response rating, Ragweed. An outline of the steps:
as §1

The subject of a further assay is ryegrass, Italian. The assay is described as follows: Test A postemergence. The format is in vivo, Lolium multiflorum. As to conditions: postemergence, 10 days; for pest or weed control at 125 g/ha / pest or weed control at 500 g/ha: Lolium multiflorum, post-emergence, 240 h, 0 to 100 scale (0 no effect, 100 complete control); for pest or weed control at 125 g/ha: read-out: Ryegrass, Italian plant response rating; for pest or weed control at 500 g/ha: 500 g ai/ha, visual injury, read-out: Plant response rating, Ryegrass, Italian. The procedure, abridged:
as §1

The next assay concerns wheat. Briefly: Test A postemergence. The class given is in vivo, Triticum aestivum. To be noted: postemergence, 10 days; for plant injury at 125 g/ha / plant injury at 500 g/ha: Triticum aestivum, post-emergence, 240 h, 0 to 100 scale (0 no effect, 100 complete control); for plant injury at 125 g/ha: read-out: Wheat plant response rating; for plant injury at 500 g/ha: 500 g ai/ha, visual injury, read-out: Plant response rating, Wheat. An outline of the steps: as §1

For the next assay, the system named is sedge, umbrella. The assay is described as follows: Test B flooded paddy test. The format is in vivo, Cyperus difformis. As to conditions: Cyperus difformis, 312 h; 250 g ai/ha, Flood, 13 days, 0 to 100 scale (0 no effect, 100 complete control); read-out: Plant response rating, Sedge, Umbrella. An outline of the steps: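 Plants at the 2-leaf stage were flooded to 3 cm above the soil, and test compounds were applied directly into the paddy water, with that depth held throughout. After 13 days in a greenhouse, injury was rated visually against untreated controls on a 0–100 scale (100 = complete control).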

A further assay has as its system galium. The assay is described as follows: Test A postemergence. As to conditions: postemergence, 10 days; for pest or weed control at 500 g/ha: 500 g ai/ha, visual injury, read-out: Plant response rating, Galium. The class given is in vivo, Galium aparine. An outline of the steps:
as §1

Where [7] appears, read: 125 g ai/ha, visual injury after 10 days, 0 to 100 scale, 0 is no effect, 100 is complete control.
[8] abbreviates: 0 to 100 scale (0 no effect, 100 complete control), 10 days.
Where [9] appears, read: 500 g ai/ha, 0 to 100 scale (0 no effect, 100 complete control), 10 days.
The mark [10] stands for this setting: 125 g ai/ha, postemergence, 10 days, 0 to 100 scale (0 no effect, 100 complete control).
The mark [11] stands for this setting: 125 g ai/ha, 0 to 100 scale (0 no effect, 100 complete control).
Setting [12] is: 500 g ai/ha, visual injury, 0 to 100 scale (0 no effect, 100 complete control).
The mark [13] stands for this setting: visual injury after 10 days, 0 to 100 scale, 0 is no effect, 100 is complete control.
The mark [14] stands for this setting: 500 g ai/ha, visual injury after 10 days, 0 to 100 scale, 0 is no effect, 100 is complete control.
[15] abbreviates: 500 g ai/ha, postemergence, 10 days, visual injury, 0 to 100 scale (0 no effect, 100 complete control).
Setting [16] is: 125 g ai/ha, 0 to 100 scale, 0 no effect, 100 complete control.
[17] abbreviates: Galium, post-emergence, 240 h, 0 to 100 scale (0 no effect, 100 complete control).

Read-outs that look alike come from different tables or passages of the source.

Take `Cc1cccc2c1O[C@@H](C)CN2C(=O)c1cccc(-n2cnc(C3CCCC3)n2)c1` [Compound 80, [3-(3-Cyclopentyl-1H-1,2,4-triazol-1-yl)phenyl][(2S)-2,3-dihydro-2,8-dimethyl-4H-1,4-benzoxazin-4-yl]methanone]: the pest or weed control at 125 g/ha in the assay with blackgrass [1] (setting [7]) turned out to be 20%; with foxtail, giant [2] (setting [7]) it was 20%; in the assay on goosegrass [3] (setting [7]) it was 90%; in the assay with blackgrass [4] (setting [10]) it was 0%; in the assay on foxtail, giant [5] (125 g ai/ha), 10%; with goosegrass [6] (125 g ai/ha, read-out: Goosegrass plant response rating), 10%. For the same molecule, the pest or weed control at 125 g/ha in the assay on oat, wild (setting [11]) was determined as 0%; in the assay on pigweed, palmer (125 g ai/ha), 30%; in the assay on ragweed (setting [11]) it was 40%; in the assay with ryegrass, Italian (125 g ai/ha) it was 20%. The pest or weed control at 500 g/ha in the assay on blackgrass [1] (setting [8]) is 40%; in the assay on foxtail, giant [2] (setting [8]), 80%; in the assay on goosegrass [3] (setting [9]), 100%; in the assay on blackgrass [4] (500 g ai/ha, Postemergence, 0 to 100 scale), 40%; with foxtail, giant [5], 50%; in the assay on goosegrass [6] (500 g ai/ha, visual injury, read-out: Plant response rating, Goosegrass) it was 30%. Also, the pest or weed control at 500 g/ha in the assay with oat, wild (setting [12]) was 20%; in the assay with pigweed, palmer, 70%; in the assay on ragweed (setting [12]), 60%; in the assay on ryegrass, Italian, 70%. In addition, the plant injury at 125 g/ha in the assay on soybean (setting [7]) is 0%; in the assay on wheat (125 g ai/ha), 10%. In addition, the plant injury at 500 g/ha in the assay on soybean (setting [9]) is 0%; in the assay with wheat it was 10%. Further, the pest or weed control at 250 g/ha with sedge, umbrella came to 0%.

As to `CC(C)c1ncn(-c2cc(C(=O)N3C[C@H](C)Oc4c(Cl)cccc43)c3ccccc3c2)n1` [Compound 145], the “Plant response rating, Blackgrass” value with blackgrass [1] (125 g ai/ha, 0 to 100 scale) was 40; in the assay with blackgrass [4] (setting [15]), 70. The pest or weed control at 500 g/ha was 80% in the assay on blackgrass [1] (setting [13]); 80% in the assay with foxtail, giant [2] (setting [13]); 50% in the assay with foxtail, giant [5]; 90% with pigweed, palmer; 40% with ryegrass, Italian; 70% with galium (setting [17]). For the same molecule, the “Plant response rating, Foxtail, Giant” value in the assay on foxtail, giant [2] (125 g ai/ha, 0 to 100 scale) worked out at 70. Further, the “Plant response rating, Soybean” value was 0 in the assay with soybean (125 g ai/ha, 0 to 100 scale) and 0 in the assay on soybean (setting [14]). The “Blackgrass plant response rating” value in the assay with blackgrass [4] (125 g ai/ha, postemergence, 10 days, 0 to 100 scale, 0 no effect, 100 complete control) stood at 40. For the same molecule, the “Foxtail, Giant plant response rating” value in the assay on foxtail, giant [5] (setting [16]) came out at 20. Also, the “Oat, Wild plant response rating” value in the assay on oat, wild (setting [16]) was determined as 10. The “Plant response rating, Oat, Wild” value in the assay with oat, wild (setting [12]) is reported as 30. The “Pigweed, Palmer plant response rating” value with pigweed, palmer (setting [16]) was determined as 70. In the assay with ragweed (setting [16]), the “Ragweed plant response rating” value came out at 0. For the same molecule, the “Plant response rating, Ragweed” value with ragweed (setting [12]) came to 10. In addition, the “Ryegrass, Italian plant response rating” value with ryegrass, Italian (setting [16]) amounted to 30. Further, in the assay on wheat (setting [16]), the “Wheat plant response rating” value came to 30. Moreover, the plant injury at 500 g/ha in the assay with wheat is 30%. The “Galium plant response rating” value with galium (setting [16]) is 60. Also, the pest or weed control at 250 g/ha in the assay on sedge, umbrella worked out at 0%.

`C[C@H]1CN(C(=S)c2cccc(-n3cncn3)c2)c2cccc(Cl)c2O1` [Compound 139, [(2S)-8-Chloro-2,3-dihydro-2-methyl-4H-1,4-benzoxazin-4-yl][3-(1H-1,2,4-triazol-1-yl)phenyl]methanethione]: the pest or weed control at 125 g/ha stood at 70% in the assay with blackgrass [1] (125 g ai/ha, 0 to 100 scale); 90% in the assay with foxtail, giant [2] (125 g ai/ha, 0 to 100 scale); 80% in the assay on blackgrass [4] (setting [10]); 80% in the assay on foxtail, giant [5] (125 g ai/ha); 0% in the assay on oat, wild (setting [11]); 40% in the assay on pigweed, palmer (125 g ai/ha). Further, the pest or weed control at 125 g/ha with ragweed (setting [11]) is 0%; in the assay with ryegrass, Italian (125 g ai/ha) it was 60%; in the assay on galium (Galium, post-emergence, 240 h, 125 g ai/ha, 0 to 100 scale (0 no effect, 100 complete control), read-out: Galium plant response rating), 80%. In addition, the pest or weed control at 500 g/ha in the assay on blackgrass [1] (setting [13]) came to 90%; in the assay on foxtail, giant [2] (setting [13]) it was 100%; in the assay on blackgrass [4] (setting [15]), 90%; with foxtail, giant [5], 100%; in the assay on oat, wild (setting [12]) it was 60%; in the assay on pigweed, palmer, 80%. The pest or weed control at 500 g/ha is 30% in the assay with ragweed (setting [12]); 100% in the assay on ryegrass, Italian; 90% with galium (setting [17]). The plant injury at 125 g/ha in the assay on soybean (125 g ai/ha, 0 to 100 scale) was 0%; in the assay on wheat (125 g ai/ha), 20%. For the same molecule, the figures for the plant injury at 500 g/ha in the assay with soybean (setting [14]) and in the assay on wheat were 40% and 50%, respectively. Also, in the assay on sedge, umbrella, the pest or weed control at 250 g/ha is 75%.

(Values after patent US20260262643A1, “HERBICIDAL BENZOXAZINES” (FMC CORPORATION, priority 2022, published 2026).)
